Measurements taken from patent publication US20060223849A1, “Benzazole derivatives, compositions, and methods of use as beta-secretase inhibitors” (priority 2005, published 2006).

System: HEK293 cells stably expressing wildtype human APP695 protein (HEK-APPwt cells)
Assay: Aβ cell based assay (Aβ1-40 secretion, ELISA)
Conditions: 1 hr room temperature then five-hour incubation at 37° C., Aβ1-40 ELISA, DAPT as 100% inhibition reference, read-out: EC50, reduction of Aβ1-40 secretion in the cell based assay
Procedure: Aβ Cell Based Assay Procedure
In the following assay, the proteolytic activity of BACE in cells exposed to varying concentrations of a compound of interest is measured by observing the amount of Aβ1-40 secreted from HEK293 cells (Human Embryonic Kidney epithelial cell line) stably expressing either wildtype human APP695 protein (HEK-APPwt cells).
HEK-APPwt cells were grown in high glucose DMEM (Dulbecco's Modified Eagles Medium) with 4500 mg glucose/L,L-glutamine, NaHCO3, pyrdoxin HCl, 10 mM HEPES (4-(2-hydroxyethyl)-1-piperazineethanesulfonic acid) (pH 7.4), 0.1 mM NEAA (Non-essential Amino Acids) (GIBCO Cat#11140-050), 10% fetal bovine serum and 250 μg/ml hygromycin in T-225 flasks at 37° C. with CO2 and humidity control.
Test compounds were initially prepared in DMSO and diluted with DMEM media containing 2% FBS (Fetal bovine serum) and 0.05% Tween20. Ten standard compound solutions were prepared having a range of concentrations. The standard compound solutions were used to determine the EC50 of the test compound. The range of concentrations chosen may depend on the compound's predicted potency.
To prepare the cells for the assay, a flask containing HEK-APPwt cells were trypsinized briefly (1 mL trypsin), and once the cells detached, 4 mL of 10% FBS-DMEM was added to the flask. The detached cells were centrifuged at 900 rpm for 5 min to form a pellet.
The HEK-APPwt cell pellet was re-suspended with 10 mL DMEM media containing 2% FBS. 80 μL of the cell suspension was added to each well of a 96-well cell culture plate to give 100,000 cells/well. 10 μL of a standard compound solution was added to each well of the 96-well cell culture plate followed by 10 μL of Alamar blue solution. The cells were incubated at room temperature for 1 hr, followed by a five-hour incubation in the CO2 incubator at 37° C.
At the end of the incubation, the plates were removed from incubator, and the supernatant was collected. Aβ1-40 concentration in the medium was measured by using a commercial Aβ1-40 ELISA kit (IBL, Japan). Briefly, the ELISA plates were coated with anti-human Aβ35-40 mouse IgG monoclonal antibody. A horseradish peroxidase enzyme conjugated anti-human Aβ11-28 mouse IgG monoclone antibody was used for detection. The cell culture supernatant was diluted 1:4 fold with (EIA buffer+Protease inhibitor (buffer containing Protease Inhibitor (1 mL PI/30 mL buffer). A 100 μL aliquot of the diluted supernatant was added to each well of the ELISA plate and incubated for 6 hrs at 4° C. The ELISA plate was washed 8 times with phosphate buffered saline (PBS) containing 0.05% Tween 20.
A 100 μL of detection antibody was then added and incubated for 1 hour at 4° C. The plate was washed 8 times with PBS buffer containing 0.05% Tween 20 followed by addition of 100 μL of the substrate with the chromogen tetramethyl benzidine (TMB). The plate was incubated in the dark at room temperature for about 30 min and a stop solution (1N H2SO4) was added.
The intensity of the color developed was measured at 450 nm. The optical density at 450 nm (OD450) is proportional to the concentration of human Aβ1-40 secreted by the cell. As a reference, N—[N-(3,5-difluorophenacetyl-L-alanyl)]-S-phenylglycine t-butyl ester (DAPT, a γ-secretase inhibitor) was used to indicate 100% inhibition of BACE activity. Thus, the assay measures the ability of a compound of interest to reduce Aβ1-40 secretion. Compound potency was reported as the EC50 by calculating the percent inhibition at all concentration levels and the data were fit with non-linear curve fitting algorithm using in GraphPad Prism.

## CCS(=O)(=O)c1cc(C(=O)Nc2ncc[nH]2)c2[nH]c(NC(=O)c3cc4ccccc4cn3)nc2c1 [Example 491, isoquinoline-3-carboxylic acid [5-ethanesulfonyl-7-(1H-imidazol-2-ylcarbamoyl)-1H-benzoimidazol-2-yl]-amide]
  EC50: ≤ 2 µM
